According to EP2668952A2, “Aqueous formulations of bisphosphonates, vitamin D and benzyl alcohol suitable for subcutaneous or intramuscular use” (Romano, Paolo, priority 2012, dated 2013):

Assays:
[1] = Particulate matter in water solutions of disodium clodronate and cholecalciferol with organic solvents; format: physicochemical; parameters: key: *: opalescent; **: turbid; ***: precipitate; settings: disodium clodronate 100 mg/3ml, cholecalciferol 0.35mg/3ml
Description: (§1) In order to assess the degree of water solubilization of bisphosphonates and vitamin D by addition of variable amounts of benzyl alcohol and other water mixable organic solvents, 2 mother solutions at concentration of 100 mg disodium clodronate or 5 mg zoledronic acid in 2 ml water for injection, examples of respectively high and low dose bisphosphonates, were prepared and buffered with sodium bicarbonate to pH 6.5.
(§2) Two-ml samples of both solutions with the two bisphosphonates mentioned above were then diluted with water to approx. 3 ml (3 samples: more precisely 2997 µl, 2991µl, and 2970 µl), to 2.7 ml (1 sample) and to 2.4 ml (1 sample).A mother solution containing cholecalciferol in benzyl alcohol or other water mixable organic solvents in a ratio of 0.35 mg : 3.0 mg respectively (11.67% w/w) was also prepared and 2 series of 5 samples of 3.35 mg of it were taken and kept as such (1 sample) or diluted with 6.0 mg, 27.0 mg, 297.0 and 597.0 mg respectively of the same solvent (4 samples).The 5 cholecalciferol solution samples were then added, under slow stirring, to the 5 solution samples of each bisphosphonate in the order, so as to give mixtures with solvent concentration of 0.1, 0.3, 1.0, 10.0 and 20.0% (w/v), left to stand for 10 minutes and then examined according to the microscopic particle count test or visually (an instrumental particle counter was unnecessary).
Table Va: particulate matter in water solutions of disodium clodronate 100 mg/3ml and cholecalciferol 0.35mg / 3ml, containing different % concentrations (w/v) of organic solvents.

[2] = Particulate matter in water solutions of zoledronic acid and cholecalciferol with organic solvents; format: physicochemical; parameters: key: *: opalescent; **: turbid; ***: precipitate; settings: zoledronic acid 5.0 mg/3ml, cholecalciferol 0.35 mg/3ml
Description: as §1, §2
Table Vb: particulate matter in water solutions of zoledronic acid 5.0 mg/3ml and cholecalciferol 0.35 mg / 3ml, containing different % concentrations (w/v) of organic solvents.

[3] = 10 % (w/v) solvent, count or visual symbol
[4] = 20 % (w/v) solvent, visual symbol
[5] = 10.0 % (w/v) solvent, count or visual symbol
[6] = 20.0 % (w/v) solvent, visual symbol

| Particulate matter ≥ 10µm per ml ([1]; 0.1 % (w/v) solvent) [per ml] | Particulate matter ≥ 10µm per ml ([1]; 0.3 % (w/v) solvent) [per ml] | Particulate matter ≥ 10µm per ml ([1]; 1.0 % (w/v) solvent) [per ml] | Particulate matter ≥ 10µm per ml [1, 3] | Particulate matter ≥ 10µm per ml [1, 4] | Compound | Particulate matter ≥ 10µm per ml ([2]; 0.1 % (w/v) solvent) [per ml] | Particulate matter ≥ 10µm per ml ([2]; 0.3 % (w/v) solvent) [per ml] | Particulate matter ≥ 10µm per ml ([2]; 1.0 % (w/v) solvent) [per ml] | Particulate matter ≥ 10µm per ml [2, 5] | Particulate matter ≥ 10µm per ml [2, 6] |
| --- | --- | --- | --- | --- | --- | --- | --- | --- | --- | --- |
| 75 | 23 | 48 | ** | *** | CCO [Ethanol] | 68 | 22 | 16 | * | ** |
| 83 | 74 | 56 | ** | *** | Sorbitane monoleate [Sorbitane monoleate (SPAN® 80)] |  |  |  |  |  |

| Compound | Particulate matter ≥ 10µm per ml ([1]; 0.1 % (w/v) solvent) [per ml] | Particulate matter ≥ 10µm per ml ([1]; 0.3 % (w/v) solvent) [per ml] | Particulate matter ≥ 10µm per ml ([1]; 1.0 % (w/v) solvent) [per ml] | Particulate matter ≥ 10µm per ml [1, 3] | Particulate matter ≥ 10µm per ml [1, 4] | Particulate matter ≥ 10µm per ml ([2]; 0.1 % (w/v) solvent) [per ml] | Particulate matter ≥ 10µm per ml ([2]; 0.3 % (w/v) solvent) [per ml] | Particulate matter ≥ 10µm per ml ([2]; 1.0 % (w/v) solvent) [per ml] | Particulate matter ≥ 10µm per ml [2, 5] | Particulate matter ≥ 10µm per ml [2, 6] |
| --- | --- | --- | --- | --- | --- | --- | --- | --- | --- | --- |
| OCc1ccccc1 [Benzyl alcohol] | 8 | 0 | 0 | 0 per ml | * | 10 | 0 | 0 | 0 per ml | * |
